Measurements published in US6461997B1, “Triazole sulfones having herbicidal activity” (Monsanto Technology LLC, priority 1999, dated 2002).

What was measured:
[1] = system: SINAR (wild mustard); experiment: Pre-emergence herbicidal activity, cool season; assay type: in vivo, Sinapis arvensis; settings: lowest tested rate with 80% or greater inhibition; rates 300, 100, 30, 10 g/ha; about 14 days
In short: (§1)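 GR80 values derive from percent inhibition relative to untreated plants, read roughly 14 days after sowing and pre-emergence soil-surface treatment (compound in 50:50 acetone/water; rates typically 10, 30, 100, 300 g/ha). Warm-season weeds grew at 30/21° C day/night, cool-season ones at 18/13° C; an asterisk marks activity without reaching 80% at the highest rate.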

[2] = system: LAMPU (purple deadnettle); experiment: Pre-emergence herbicidal activity, cool season; assay type: in vivo, Lamium purpureum; settings: lowest tested rate with 80% or greater inhibition; rates 300, 100, 30, 10 g/ha; about 14 days
In short: as §1

[3] = system: SETVI (green foxtail); experiment: Pre-emergence herbicidal activity, cool season; assay type: in vivo, Setaria viridis; settings: GR80 = lowest tested rate (300, 100, 30, 10 g/ha) with 80% or greater inhibition; approx. 14 days after treating; 18/13° C.
In short: as §1

[4] = system: AGSST (creeping bentgrass); experiment: Pre-emergence herbicidal activity, cool season; assay type: in vivo, Agrostis stolonifera; settings: GR80 = lowest tested rate (300, 100, 30, 10 g/ha) with 80% or greater inhibition; approx. 14 days after treating; 18/13° C.
In short: as §1

[5] = system: AMARE (redroot pigweed); experiment: Pre-plant incorporated (PPI) herbicidal activity, warm season; assay type: in vivo, Amaranthus retroflexus; settings: for Percent inhibition AMARE: PPI application; for PPI activity (GR80) AMARE: pre-plant incorporated, GR80 = lowest tested rate with 80% or greater inhibition, approx. 14 days after treating, 30/21° C.
In short: (§2)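 First, seeds were placed on topsoil compacted to 1.0–1.25 cm below the pot rim. Next, cover soil treated with sprayed test compound and mixed was added over them. Pots then received 0.64 cm irrigation at 30/21° C or 18/13° C day/night, and inhibition versus untreated was rated near day 14.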

[6] = system: CHEAL (common lambsquarters); experiment: as above; assay type: in vivo, Chenopodium album; settings: for Percent inhibition CHEAL: PPI application; for PPI activity (GR80) CHEAL: pre-plant incorporated, GR80 = lowest tested rate with 80% or greater inhibition, approx. 14 days after treating, 30/21° C.
In short: as §2

[7] = system: PANMI (wild proso millet); experiment: as above; assay type: in vivo, Panicum miliaceum; settings: for Percent inhibition PANMI: PPI application; for PPI activity GR80, PANMI: pre-plant incorporated, lowest tested rate with 80% or greater inhibition, about 14 days
In short: as §2

[8] = system: LOLMG (annual ryegrass); experiment: Pre-plant incorporated (PPI) herbicidal activity, cool season; assay type: in vivo, Lolium multiflorum; settings: for Percent inhibition LOLMG: weed, PPI application; for PPI activity GR80, LOLMG: pre-plant incorporated, lowest tested rate with 80% or greater inhibition, about 14 days
In short: as §2

[9] = system: AEGCY (jointed goatgrass); experiment: as above; assay type: in vivo, Aegilops cylindrica; settings: for Percent inhibition AEGCY: weed, PPI application; for PPI activity GR80, AEGCY: pre-plant incorporated, lowest tested rate with 80% or greater inhibition, about 14 days
In short: as §2

[10] = system: XANST (cocklebur); experiment: Pre-plant incorporated (PPI) herbicidal activity, warm season; assay type: in vivo, Xanthium strumarium; settings: PPI application
In short: as §2

[11] = system: wheat (TRZAW); experiment: Selectivity test, PPI, cool season crop; assay type: in vivo, Triticum aestivum; settings: PPI application
In short: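 Percent inhibition relative to untreated controls, assessed roughly 14 days post-planting. Seeds were covered with a soil layer into which solvent-borne compound had been sprayed and mixed. Plants were then grown at 30/21° C. (warm season) or 18/13° C. (cool season) day/night regimes.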

CCN(CC)C(=O)n1cnc(S(=O)(=O)C(F)(F)SCc2ccccc2)n1 [Example 10]
Pre-emergence activity GR80, SINAR [1]: 100 g/ha
Pre-emergence activity GR80, LAMPU [2]: 100 g/ha
Pre-emergence activity (GR80) SETVI [3]: 300 g/ha
Pre-emergence activity (GR80) AGSST [4]: 100 g/ha
Percent inhibition AMARE ([5]; 10 g/ha): 0%
Percent inhibition AMARE ([5]; 30 g/ha): 0%
Percent inhibition AMARE ([5]; 100 g/ha): 40%
Percent inhibition AMARE ([5]; 300 g/ha): 100%
Percent inhibition AMARE ([5]; 900 g/ha): 100%
Percent inhibition CHEAL ([6]; 10 g/ha): 30%
Percent inhibition CHEAL ([6]; 30 g/ha): 60%
Percent inhibition CHEAL ([6]; 100 g/ha): 60%
Percent inhibition CHEAL ([6]; 300 g/ha): 100%
Percent inhibition CHEAL ([6]; 900 g/ha): 100%
Percent inhibition PANMI ([7]; 10 g/ha): 0%
Percent inhibition PANMI ([7]; 30 g/ha): 0%
Percent inhibition PANMI ([7]; 100 g/ha): 80%
Percent inhibition PANMI ([7]; 300 g/ha): 99%
Percent inhibition PANMI ([7]; 900 g/ha): 100%
Percent inhibition LOLMG ([8]; 10 g/ha): 0%
Percent inhibition LOLMG ([8]; 30 g/ha): 0%
Percent inhibition LOLMG ([8]; 100 g/ha): 65%
Percent inhibition LOLMG ([8]; 300 g/ha): 100%
Percent inhibition LOLMG ([8]; 900 g/ha): 99%
Percent inhibition AEGCY ([9]; 10 g/ha): 0%
Percent inhibition AEGCY ([9]; 30 g/ha): 0%
Percent inhibition AEGCY ([9]; 100 g/ha): 20%
Percent inhibition AEGCY ([9]; 300 g/ha): 30%
Percent inhibition AEGCY ([9]; 900 g/ha): 20%
Percent inhibition XANST ([10]; 10 g/ha): 0%
Percent inhibition XANST ([10]; 30 g/ha): 0%
Percent inhibition XANST ([10]; 100 g/ha): 0%
Percent inhibition XANST ([10]; 300 g/ha): 0%
Percent inhibition XANST ([10]; 900 g/ha): 10%
Percent inhibition TRZAW ([11]; 10 g/ha): 0%
Percent inhibition TRZAW ([11]; 30 g/ha): 0%
Percent inhibition TRZAW ([11]; 100 g/ha): 0%
Percent inhibition TRZAW ([11]; 300 g/ha): 10%
Percent inhibition TRZAW ([11]; 900 g/ha): 20%

CCN(CC)C(=O)n1cnc(S(=O)(=O)C(F)(F)SCCOC)n1 [Example 13]
Pre-emergence activity GR80, SINAR [1]: [empty]
Pre-emergence activity GR80, LAMPU [2]: 100 g/ha
Pre-emergence activity (GR80) SETVI [3]: 100 g/ha
Pre-emergence activity (GR80) AGSST [4]: 100 g/ha
Percent inhibition AMARE ([5]; 10 g/ha): 0%
Percent inhibition AMARE ([5]; 30 g/ha): 90%
Percent inhibition AMARE ([5]; 100 g/ha): 70%
Percent inhibition AMARE ([5]; 300 g/ha): 100%
Percent inhibition AMARE ([5]; 900 g/ha): 100%
PPI activity (GR80) AMARE [5]: 100 g/ha
Percent inhibition CHEAL ([6]; 10 g/ha): 30%
Percent inhibition CHEAL ([6]; 30 g/ha): 20%
Percent inhibition CHEAL ([6]; 100 g/ha): 100%
Percent inhibition CHEAL ([6]; 300 g/ha): 100%
Percent inhibition CHEAL ([6]; 900 g/ha): 100%
PPI activity (GR80) CHEAL [6]: 30 g/ha
Percent inhibition PANMI ([7]; 10 g/ha): 100%
Percent inhibition PANMI ([7]; 30 g/ha): 90%
Percent inhibition PANMI ([7]; 100 g/ha): 70%
Percent inhibition PANMI ([7]; 300 g/ha): 100%
Percent inhibition PANMI ([7]; 900 g/ha): 100%
PPI activity GR80, PANMI [7]: 100 g/ha
PPI activity GR80, LOLMG [8]: * (activity observed, at least at highest rate, but <80% inhibition)
Percent inhibition LOLMG ([8]; 10 g/ha): 20%
Percent inhibition LOLMG ([8]; 30 g/ha): 60%
Percent inhibition LOLMG ([8]; 100 g/ha): 70%
Percent inhibition LOLMG ([8]; 300 g/ha): 100%
Percent inhibition LOLMG ([8]; 900 g/ha): 100%
PPI activity GR80, AEGCY [9]: [empty]
Percent inhibition AEGCY ([9]; 10 g/ha): 0%
Percent inhibition AEGCY ([9]; 30 g/ha): 0%
Percent inhibition AEGCY ([9]; 100 g/ha): 0%
Percent inhibition AEGCY ([9]; 300 g/ha): 60%
Percent inhibition AEGCY ([9]; 900 g/ha): 40%
Percent inhibition XANST ([10]; 10 g/ha): 0%
Percent inhibition XANST ([10]; 30 g/ha): 0%
Percent inhibition XANST ([10]; 100 g/ha): 0%
Percent inhibition XANST ([10]; 300 g/ha): 0%
Percent inhibition XANST ([10]; 900 g/ha): 30%
Percent inhibition TRZAW ([11]; 10 g/ha): 0%
Percent inhibition TRZAW ([11]; 30 g/ha): 0%
Percent inhibition TRZAW ([11]; 100 g/ha): 20%
Percent inhibition TRZAW ([11]; 300 g/ha): 20%
Percent inhibition TRZAW ([11]; 900 g/ha): 30%

CCN(CC)C(=O)n1cnc(S(=O)(=O)C(F)(F)C(F)F)n1 [Example 16]
Pre-emergence activity GR80, SINAR [1]: 100 g/ha
Pre-emergence activity GR80, LAMPU [2]: 100 g/ha
Pre-emergence activity (GR80) SETVI [3]: 300 g/ha
Pre-emergence activity (GR80) AGSST [4]: 30 g/ha
Percent inhibition AMARE ([5]; 10 g/ha): 80%
Percent inhibition AMARE ([5]; 30 g/ha): 100%
Percent inhibition AMARE ([5]; 100 g/ha): 100%
Percent inhibition AMARE ([5]; 300 g/ha): 100%
Percent inhibition AMARE ([5]; 900 g/ha): 100%
PPI activity (GR80) AMARE [5]: 10 g/ha
Percent inhibition CHEAL ([6]; 10 g/ha): 100%
Percent inhibition CHEAL ([6]; 30 g/ha): 100%
Percent inhibition CHEAL ([6]; 100 g/ha): 100%
Percent inhibition CHEAL ([6]; 300 g/ha): 100%
Percent inhibition CHEAL ([6]; 900 g/ha): 100%
PPI activity (GR80) CHEAL [6]: 30 g/ha
Percent inhibition PANMI ([7]; 10 g/ha): 100%
Percent inhibition PANMI ([7]; 30 g/ha): 100%
Percent inhibition PANMI ([7]; 100 g/ha): 100%
Percent inhibition PANMI ([7]; 300 g/ha): 100%
Percent inhibition PANMI ([7]; 900 g/ha): 100%
PPI activity GR80, PANMI [7]: 30 g/ha
PPI activity GR80, LOLMG [8]: 300 g/ha
Percent inhibition LOLMG ([8]; 10 g/ha): 45%
Percent inhibition LOLMG ([8]; 30 g/ha): 35%
Percent inhibition LOLMG ([8]; 100 g/ha): 90%
Percent inhibition LOLMG ([8]; 300 g/ha): 95%
Percent inhibition LOLMG ([8]; 900 g/ha): 100%
PPI activity GR80, AEGCY [9]: 300 g/ha
Percent inhibition AEGCY ([9]; 10 g/ha): 0%
Percent inhibition AEGCY ([9]; 30 g/ha): 0%
Percent inhibition AEGCY ([9]; 100 g/ha): 0%
Percent inhibition AEGCY ([9]; 300 g/ha): 20%
Percent inhibition AEGCY ([9]; 900 g/ha): 60%
Percent inhibition XANST ([10]; 10 g/ha): 0%
Percent inhibition XANST ([10]; 30 g/ha): 0%
Percent inhibition XANST ([10]; 100 g/ha): 0%
Percent inhibition XANST ([10]; 300 g/ha): 0%
Percent inhibition XANST ([10]; 900 g/ha): 95%
Percent inhibition TRZAW ([11]; 10 g/ha): 0%
Percent inhibition TRZAW ([11]; 30 g/ha): 0%
Percent inhibition TRZAW ([11]; 100 g/ha): 10%
Percent inhibition TRZAW ([11]; 300 g/ha): 10%
Percent inhibition TRZAW ([11]; 900 g/ha): 20%
